Values joined by “and” are separate entries in the source; they are usually repeats but may differ in a detail not shown here. Identical values can stand only once.
Legend:
[1] = Cannabinoid profile of crystalline product samples by HPLC-DAD-MS analysis (cannabinoid preservation); settings: for Cannabinoid quantity, Avg R103A-C: average of Samples R103A-C; for Cannabinoid quantity, Avg R103A-C / Cannabinoid quantity in Control R104 / Cannabinoid quantity in Sample S103 / Cannabinoid quantity in Sample R103A / Cannabinoid quantity in Sample R103B: without rapid cooling process; for Cannabinoid quantity in Control R104: control crystalline product; for Cannabinoid quantity in Sample S201 / Cannabinoid quantity in Sample S103 / Cannabinoid quantity in Sample R104A / Cannabinoid quantity in (Retest) Sample R104A / Cannabinoid quantity in Sample R104B / Cannabinoid quantity in Sample R103A / Cannabinoid quantity in Sample R103B: crystalline product; for Cannabinoid quantity in Sample S201 / Cannabinoid quantity in Sample S103 / Change in cannabinoid quantity, Sample S201 compared to Sample S103: sodium chloride; for Cannabinoid quantity in Sample S201 / Cannabinoid quantity in Sample R104A / Cannabinoid quantity in (Retest) Sample R104A / Cannabinoid quantity in Sample R104B: with rapid cooling process; for Cannabinoid quantity in Sample S103: from RB-Fat; for Cannabinoid quantity in Sample R104A: original test; for Cannabinoid quantity in Sample R104B: stored for three months before being tested; for Cannabinoid quantity in Sample R103A / Cannabinoid quantity in Sample R103B: from RB Fat; for Change in cannabinoid quantity, Sample S201 compared to Sample S103: with vs without rapid cooling process
[2] = Cannabinoid profile of the cannabis extract by LCMS analysis; settings: cannabis extract labeled RB Fat

Compound | Cannabinoid quantity, Avg R103A-C ([1]; sucrose) | Cannabinoid quantity in Control R104 ([1]; sucrose) | Cannabinoid quantity in Sample S201 [1] | Cannabinoid quantity in Sample S103 [1] | Cannabinoid quantity in Sample R104A ([1]; sucrose) | Cannabinoid quantity in (Retest) Sample R104A ([1]; sucrose) | Cannabinoid quantity in Sample R104B ([1]; sucrose) | Cannabinoid quantity in Sample R103A ([1]; sucrose) | Cannabinoid quantity in Sample R103B ([1]; sucrose) | Change in cannabinoid quantity, Sample S201 compared to Sample S103 [1] | Cannabinoid quantity in Sample RB Fat [2] | Increase in quantity, Sample R104A compared to the control sample ([1]; sucrose, rapid cooling process vs Control R104)
CCCc1cc(O)c2c(c1)OC(C)(C)[C@@H]1CCC(C)=C[C@@H]21 [THCV, Tetrahydrocannabivarin] | 0.16 mg/g | 0.34 mg/g | 0.41 mg/g | 0.51 mg/g | 0.54 mg/g | 0.52 mg/g | 0.55 mg/g | 0.14 mg/g | 0.2 mg/g | marginal differences |  | 
CCCCCc1cc(O)c2c(c1)OC(C)(C)c1ccc(C)cc1-2 [CBN, Cannabinol] | 1.03 mg/g | 0.57 mg/g | 0.79 mg/g | 2.33 mg/g | 1.17 mg/g | 1.26 mg/g | 1.28 mg/g | 0.93 mg/g | 1 mg/g | significant reduction | 0.3 mg/mL | 
C=C(C)[C@@H]1CCC(C)=C[C@H]1c1c(O)cc(CCCCC)c(C(=O)O)c1O [CBD-A, Cannabidiolic acid] | No detectable quantities | undetectable quantities |  |  | negligible or no detectable quantities |  |  |  |  |  | 0.12 mg/mL | 
CCCc1cc2c(c(O)c1C(=O)O)C1C=C(C)CCC1C(C)(C)O2 (centres unmarked) [THCV-A] | 0.02 mg/g | undetectable quantities |  |  | negligible or no detectable quantities |  |  | 0.05 mg/g |  |  | 0.26 mg/mL | 
CCCCCc1cc(O)c2c(c1)OC(C)(CCC=C(C)C)C=C2 (centres unmarked) [CBC, Cannabichromene] | 0.45 mg/g | 0.8 mg/g | 0.84 mg/g | 0.94 mg/g | 1.18 mg/g | 1.15 mg/g | 1.22 mg/g | 0.47 mg/g | 0.45 mg/g | marginal differences | 0.63 mg/mL | 
CCCCCc1cc(O)c2c(c1)OC(C)(C)[C@@H]1CC=C(C)C[C@@H]21 [Δ8-THC, Δ-8-tetrahydrocannabinol] | 0.06 mg/g | 1.7 mg/g |  |  | no detectable quantities | 1.36 mg/g | 0.14 mg/g |  |  |  |  | 
CCCCCc1cc(O)c2c(c1)OC(C)(C)[C@@H]1CCC(C)=C[C@@H]21 [Δ9-THC, Δ-9-tetrahydrocannabinol, reference compound] | 15.79 mg/g | 35.37 mg/g | 40.04 mg/g | 21.93 mg/g and 21.92 mg/g | 57.13 mg/g | 57.45 mg/g | 60.42 mg/g | 15.56 mg/g | 16.18 mg/g | two-fold increase | 12.85 mg/mL | 62%
C=C(C)[C@@H]1CCC(C)=C[C@H]1c1c(O)cc(CCCCC)cc1O [CBD, Cannabidiol, reference compound] | No detectable quantities | 0.17 mg/g | 0.11 mg/g | 0.22 mg/g | 0.08 mg/g | 0.15 mg/g | 0.17 mg/g |  |  | marginal differences |  | 
CCCCCc1cc(O)c(C/C=C(\C)CCC=C(C)C)c(O)c1 [CBG, Cannabigerol] | 0.28 mg/g | 0.82 mg/g | 0.93 mg/g | 0.58 mg/g | 1.34 mg/g | 1.29 mg/g | 1.25 mg/g | 0.32 mg/g | 0.26 mg/g | marginal differences | 0.69 mg/mL | 
CCCCCc1cc(O)c(C/C=C(\C)CCC=C(C)C)c(O)c1C(=O)O [CBG-A, cannabigerolic acid] | no quantity of CBG-A was detected | undetectable quantities |  |  | negligible or no detectable quantities |  |  |  |  |  | 1.22 mg/mL | 
CCCCCc1cc2c(c(O)c1C(=O)O)C1C3C(CCC3(C)O2)C1(C)C (centres unmarked) [CBL-A, cannabicyclol acid] | 0.39 mg/g |  |  |  |  |  |  | 0.46 mg/g | 0.35 mg/g |  | 0.38 mg/mL | 
CCCCCc1cc2c(c(O)c1C(=O)O)[C@@H]1C=C(C)CC[C@H]1C(C)(C)O2 [THC-A, Tetrahydrocannabinolic acid] | 5.46 mg/g |  |  |  |  |  |  | 7.13 mg/g | 6.18 mg/g |  | 37.07 mg/mL | 

From US9815810B1, “Method of cannabinoid preservation through crystallization and other crystal structures” (Deep Cell […]., priority 2016, dated 2017)
